Structures can show the parent of a compound that is named as a salt. Where two headings read alike, the source gives them in different places. Marks after values point to notes of the source that are not given here.
Tests used:
Vero cell = assay: Cytotoxicity test on Vero cells (MTT); assay type: cell-based, African green monkey; conditions: 72 h, Probit regression
Protocol: Cytotoxicity test: drugs are diluted according to the concentrations indicated in Table 1 for the determination of cytotoxicity.
The aforementioned drugs which are diluted with a maintenance solution (DMEM containing 2% or fetal bovine serum) to different concentrations are dropwise added to the Vero monolayer cell, each well is 0.2ml, there are 6 duplicate wells for each concentration, 6 wells for normal control (normal control group without adding drugs) and 6 wells for blank control (culture medium) are additionally provided, those are placed in an 5% CO2 incubator at 37° C. for culturing, observing CPE with an inverted microscope every day and recording. After 72 h, 20 μL (5 mg·mL^−1) of MTT solution is added in each well, and continues to be incubated for 4 h, the culture broth in each well is sucked and discarded, 100 μL of DMSO is added in each well, and is shaken for 5 min, measuring the OD value at 492 nm to calculate cell survival rate. In SPSS 18.0 statistical software, the cell survival rate is subjected to Probit regression analysis to calculate the maximum non-toxic concentration (TC0) and half toxic concentration (TC50) of the drug on the Vero cell.

Adenovirus (AdV) = assay: Impact of the drug on virus-induced cytopathy (CPE, MTT), ADV; assay type: cell-based; conditions: Vero cells, 100TCID50, drug at about the maximum non-toxic concentration, 72 h
Enterovirus EV71 = assay: Impact of the drug on virus-induced cytopathy (CPE, MTT), EV71; assay type: cell-based; conditions: Vero cells, 100TCID50, drug at about the maximum non-toxic concentration, 72 h
Coxsackievirus B3 (CVB3) = assay: Impact of the drug on virus-induced cytopathy (CPE, MTT), CVB3; assay type: cell-based; conditions: Vero cells, 100TCID50, drug at about the maximum non-toxic concentration, 72 h
[1] = Solubility of the isolated solid; conditions: water and ethanol
[2] = test system: influenza virus infected mice; assay type: in vivo, Kunming mice; conditions: 5 days
[3] = test system: parainfluenza virus infected mice; assay type: in vivo, Kunming mice
[4] = test system: influenza virus infected mice; assay type: in vivo, Kunming mice; conditions: lung suspension, 5 days
[5] = test system: parainfluenza virus infected mice; assay type: in vivo, Kunming mice; remark: listed apart in the source
[6] = test system: influenza virus pneumonia model mice; assay: Observation of lung histomorphology, influenza virus pneumonia mice; assay type: in vivo, Kunming mice; conditions: 3.25 mg/kg/d to 13 mg/kg/d, fifth day, HE staining
Protocol: A degreasing cotton is placed in a 200-300 mL beaker, in which a suitable amount of ether (just for making cotton wet) is added, the beaker containing the degreasing cotton is inverted upside down, the mice are extremely excited when anesthetized therein, and are made to lie on their backs when clearly weak, the mice are infected nasally with 15LD50 influenza virus a .d parainfluenza virus at 0.03 ml/nostril, and the virus suspension is replaced with normal saline in the normal control group.
The administration is performed once a day for five consecutive days. The virus control group is drenched with normal saline of the same volume.
Various mice lungs are respectively taken in the fifth day after treatment; general pathological changes of their viscera are observed by naked eyes and are recorded. The lungs are cleaned by rinsing with normal saline and moisture thereon is sucked up by using filter paper; a portion of the lung is fixed with 10% formaldehyde, paraffin-embedded, sliced and HE-strained; observation and photographing are performed under a microscope.

[7] = test system: parainfluenza virus pneumonia model mice; assay: Observation of lung histomorphology, parainfluenza virus pneumonia mice; assay type: in vivo, Kunming mice; conditions: 3.25 mg/kg/d to 13 mg/kg/d, fifth day, HE staining
Influenza virus = assay: Impact of the drug on virus-induced cytopathy (CPE, MTT), influenza virus; assay type: cell-based
Parainfluenza virus = assay: Impact of the drug on virus-induced cytopathy (CPE, MTT), parainfluenza virus; assay type: cell-based; conditions: Vero cells, 100TCID50, drug at about the maximum non-toxic concentration, 72 h
[8] = test system: Coxsackievirus A16 (CoxA16); assay: Impact of the drug on virus-induced cytopathy (CPE, MTT), CoxA16; assay type: cell-based; conditions: Vero cells, 100TCID50, drug at about the maximum non-toxic concentration, 72 h
[9] = test system: Respiratory syncytial virus (RSV); assay: Impact of the drug on virus-induced cytopathy (CPE, MTT), RSV; assay type: cell-based; conditions: Vero cells, 100TCID50, drug at about the maximum non-toxic concentration, 72 h
[10] = test system: Herpes simplex virus type-1 (HSV-1); assay: Impact of the drug on virus-induced cytopathy (CPE, MTT), HSV-I; assay type: cell-based; conditions: Vero cells, 100TCID50, drug at about the maximum non-toxic concentration, 72 h
[11] = high dosage 13.0 mg/kg/d intragastric
[12] = low dosage 3.25 mg/kg/d intragastric
[13] = parainfluenza virus infected mice, high dosage 13.0 mg/kg/d intragastric, 5 days
[14] = parainfluenza virus infected mice, low dosage 3.25 mg/kg/d intragastric, 5 days

Compound	half toxic concentration (TC50) (Vero cell)	the maximum non-toxic concentration (TC0) (Vero cell)	antiviral effective rate (ER %), ADV (Adenovirus (AdV))	antiviral effective rate (ER %), EV71 (Enterovirus EV71)	antiviral effective rate (ER %), CVB3 (Coxsackievirus B3 (CVB3))	solubility [1]	antiviral effective rate (ER %), Parainfluenza virus (Parainfluenza virus)	antiviral effective rate (ER %), CoxA16 [8]	antiviral effective rate (ER %), RSV [9]	antiviral effective rate (ER %), HSV-I [10]	also measured
COc1ccc([C@H]2OCC3C2CO[C@H]3c2ccc(OC)c(OS(=O)(=O)O)c2)cc1OC.N (stereo partly shown)	555 µg/mL	0.105 g/L	20.88* %	35.12%	7.10%	soluble in water and ethanol					
COc1ccc([C@H]2OCC3C2CO[C@H]3c2ccc(OC)c(OS(=O)(=O)O)c2)cc1OC (stereo partly shown) [forsythiaside sodium sulfate]	685 µg/mL	0.128 g/L	20.91* %	50.21%	10.55%	soluble in water and ethanol					Lung index (X ± S) [2, 11]: 1.1809 ± .057; Lung index inhibition rate (%) [2, 11]: 20.73%; Lung index (X ± S) [2, 12]: 1.344 ± 0.035; Lung index inhibition rate (%) [2, 12]: 9.69%; Lung index (X ± S) ([3]; mouse, in vivo): 1.303 ± 0.062; Lung index inhibition rate (%) ([3]; mouse, in vivo): 18.46%; Lung index (X ± S) [3, 13]: 1.331 ± 0.073; Lung index inhibition rate (%) [3, 13]: 16.73%; Lung index (X ± S) [3, 14]: 1.311 ± 0.049; Lung index inhibition rate (%) [3, 14]: 17.96%; Hemagglutination titer (InX) ([4]; high dosage 13.0 mg/kg/d): 20.07 ± 0.646; Hemagglutination titer (InX) ([4]; low dosage 3.25 mg/kg/d): 23.93 ± 1.392; Hemagglutination titer (InX) ([5]; lung suspension, parainfluenza virus infected mice, high dosage 13.0 mg/kg/d, 5 days): 19.82 ± 0.981; Hemagglutination titer (InX) ([5]; lung suspension, parainfluenza virus infected mice, low dosage 3.25 mg/kg/d, 5 days): 23.26 ± 0.991; Hemagglutination titer (InX) ([5]; mouse, in vivo): 21.01 ± 0.614; lung histology / pulmonary tissue pathology [6]: significantly improve the pulmonary tissue pathology; lung histology / pulmonary tissue pathology [7]: significantly improve the pulmonary tissue pathology
CCOC(=O)C1=C[C@@H](OC(CC)CC)[C@H](NC(C)=O)[C@@H](N)C1 [oseltamivir phosphate, Oseltamivir phosphate, reference compound]	832 µg/mL	0.28 g/L	10.31%	51.86%	1.64%		94.52** %	2.95%	37.60%	66.56** %	antiviral effective rate (ER %), Influenza virus (Influenza virus; Vero cells, 100TCID50, drug at about the maximum non-toxic concentration, 72 h, MTT): 81.76** %
NC(=O)c1ncn([C@@H]2O[C@H](CO)[C@@H](O)[C@H]2O)n1 [ribavirin, Ribavirin, reference compound]			0.43%	4.25** %	13.44%		97.56** %	0.70%	50.08* %	62.92** %	antiviral effective rate (ER %), Influenza virus (Influenza virus): 57.49** %; Hemagglutination titer (InX) ([4]; 58.5 mg/kg/d): 21.13 ± 0.986; Hemagglutination titer (InX) ([5]; lung suspension, parainfluenza virus infected mice, 58.5 mg/kg/d, 5 days): 26.73 ± 1.193
